Values of other authors as cited in US20080146444A1, “Method and compositions for improving plant growth” (Polymer Ventures, Inc., priority 2006, published 2008).

How the values were obtained:
Xylella fastidiosa = conditions: 62.5 ppm
cucumber seed radicle = conditions: levels as low as 7-174 ppm (0.00002 M to 0.0005 M)
plant = conditions: applied at 14 ppm to 1400 ppm (0.1-10 millimolar)

SMILES: CC(C)=CCCC(C)=CC=O [citral]
- kill of Xylella fastidiosa (Xylella fastidiosa): incomplete kill

SMILES: CC(C)C1CCC(C)(O)C([N+](C)(C)C2CCCC2)C1.[Br-] (stereo not shown) [cyclopentyl dimethyl (1-hydroxy-p-menth-2-yl)ammonium bromide]
- cucumber seed radicle growth (cucumber seed radicle): inhibited

SMILES: C=C(C)[C@H]1CC=C(C)CC1 [limonene]
- plant primary root growth (plant): no improvement
- seed germination (plant): no improvement
